Assays:
primary CD4 T cells = assay: Il2 and Ifng expression in restimulated primary CD4 T cells (RT-qPCR); type: cell-based
Experimental: (§1) FIGS. 3A-D show OCA-B inhibitors and results using these peptides in primary CD4 T cells and in a NOD mouse model. […] Peptides #2 (SEQ ID NO: 2) and #3 (SEQ ID NO: 3) show efficacy. Arrows indicate position of mutant in FIG. 2C. Below: Il2 expression in primary CD4 T cells treated with 25 μM peptide #2 measured by RT-qPCR. […] In these animals, most pancreatic beta function is lost, and the diabetes arises from autoimmune inflammation (insulitis) in the pancreas, making the remaining beta cells nonfunctional.
Disclosed herein are methods that can be carried out to determine the efficacy of one or more peptides for their ability to block the interaction of OCA-B and Jmjd1a or Oct1. In some aspects, the method can be, for low-throughput studies, treating primary human or mouse CD4 T cells that have been previously stimulated and rested in culture with the test peptide (10-50 μM), and re-stimulating cells with CD3/CD28 antibodies in the presence of inhibitor. Efficacy can be determined by suppression of e.g., Il2 gene expression in T cells receiving a second stimulation, phenocopying the OCA-B germline deficient mouse (as shown in FIG. 3A). […]

CD4 T cell = assay: Viability, morphology and expansion of peptide-treated CD4 T cells; type: cell-based; conditions: 25 μM peptide
Description: Peptides were designed overlapping the OCA-B surface responsible for Jmjd1a binding, and were synthesized as Tat-fusions for membrane permeability (FIG. 3A). […] Treated cells show no changes in viability, morphology or expansion (not shown). Peptide #2 was used for subsequent experiments.

female NOD mice = assay: NOD mouse model of newly manifested type 1 diabetes; type: in vivo; conditions: for pancreatic T cell infiltration (total numbers and percentages): flow cytometry; for pancreatic T cell infiltration (total numbers and percentages) / elevated blood glucose: 12 hr after final injection; for elevated blood glucose: female 14-18 week-old NOD mice, glucose newly risen above 225 mg/dL, three intravenous injections of 20 mg/kg spaced by 12 hr
Experimental: as §1
Blood collection occurred prior to 2nd injection and 12 hr after final injection. […] Il2 gene expression was measured by TaqMan RT-qPCR. […] FIGS. 9D and E show similar analysis conducted using pancreatic lymph nodes (PLNs).
The peptide was synthesized and purified for an in vivo experiment. T1D onset in NOD mice is spontaneous and acute, allowing the administration of the peptide as symptoms arise. Female 14-18 week-old NOD mice whose glucose levels were newly-risen above 225 mg/dL but were still below 275 mg/dL were treated with three intravenous injections of 20 mg/kg peptide or Tat-only peptide control. The peptide half-life in serum was predicted to be ˜5 hr, and therefore the injections were spaced by 12 hr. Twelve hours after the final injection, blood glucose was collected and flow cytometry performed on the pancreas and pancreatic lymph nodes (PLNs). Strikingly, the inhibitor reversed elevated blood glucose (FIG. 3B; also see, FIG. 9), pancreatic T cell infiltration (both total numbers and percentages, FIG. 3C and not shown; also see, FIG. 9) and pro-inflammatory IFNγ and IL-17A cytokine production (not shown). Control peptide at the same concentration had no effect. […] OCA-B levels in B cells are at least 50-fold higher than in T cells (Immgen), making it likely that the observed effects are due to competitive inhibition in T cells. […] This peptide was used as a proto-drug to assess function and possible side effects.

[1] = NOD mice, three intravenous injections of 20 mg/kg, pancreas
[2] = NOD mice, three intravenous injections of 20 mg/kg, PLNs

Row | Substance | Il2 and Ifng expression following CD4 T cell restimulation (primary CD4 T cells; 25 μM peptide, Tat-fusion, compared with OCA-B null phenotype) | efficacy (Il2 expression in primary CD4 T cells) (primary CD4 T cells; peptides synthesized as Tat fusions, FIG. 3A) | changes in viability, morphology or expansion of treated cells (CD4 T cell) | pro-inflammatory IFNγ and IL-17A cytokine production (female NOD mice; [1]) | pancreatic T cell infiltration (total numbers and percentages) (female NOD mice; [1]) | T1D progression / emergence (female NOD mice; NOD mouse model, three injections, short time interval) | elevated blood glucose (female NOD mice) | T cell numbers or percentages in pancreatic lymph nodes (PLNs) (female NOD mice; [2]) | pro-inflammatory cytokine production in pancreatic lymph nodes (PLNs) (female NOD mice; [2])
1 | ARPYQGVRVKEPVKELLRRKRGH [Peptide #3, OCA-B fragment synthesized as Tat fusion] | phenocopies the OCA-B null phenotype | show efficacy | no changes | – | – | – | – | – | –
2 | GRKKRRQRRRGY [Tat-only peptide control, reference compound] | – | – | – | no effect | no effect | progress | no effect | – | –
3 | VKELLRRKRGH-GSG(linker)-GRKKRRQRRRGY(Tat) (VKELLRRKRGHGSGGRKKRRQRRRGY) [SEQ ID NO: 10, OCA-B/Jmjd1a interface peptide fused to Tat peptide through a GSG linker] | – | – | – | – | reduction | – | strong efficacy | unaffected | unaffected
